Data as given in patent US11370798B2 (Vertex Pharmaceuticals Incorporated, priority 2012, dated 2022).

Each compound was assayed on HCT116 colorectal cancer cells (assay: Cisplatin sensitization assay (96 h cell viability MTS)). Conditions: compound and Cisplatin added simultaneously, Cisplatin sensitization value.
Assay type: cell-based
How it was run: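 Viability read by MTS (1 h at 37° C) after 96 h co-exposure at 37° C, 5% CO2. Test compound and cisplatin were dosed simultaneously in a full concentration matrix, each 2-fold serially diluted from 10 μM final; sensitization values binned in μM.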
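Further: Test-compound concentration that lowers the Cisplatin IC50 by a set fold.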

| Structure (SMILES) | Cisplatin Sensitization Assay |
| --- | --- |
| CN1CCN(C(=O)C2CCN(c3ccncc3NC(=O)c3c(N)nn4cc(F)cnc34)CC2)CC1 [I-G-1, 2-amino-6-fluoro-N-(4-(4-(4-methylpiperazine-1-carbonyl)piperidin-1-yl)pyridin-3-yl)pyrazolo[1,5-a]pyrimidine-3-carboxamide] | +++ (Cisplatin sensitization value of <0.02 μM) |
| CN(C)C(=O)C1CCN(c2ccncc2NC(=O)c2c(N)nn3cc(F)cnc23)CC1 [I-G-2, 2-amino-N-(4-(4-(dimethylcarbamoyl)piperidin-1-yl)pyridin-3-yl)-6-fluoropyrazolo[1,5-a]pyrimidine-3-carboxamide] | +++ (Cisplatin sensitization value of <0.02 μM) |
| CN1CCN(C(=O)C2CCN(c3c(Cl)cncc3NC(=O)c3c(N)nn4cc(F)cnc34)CC2)CC1 [I-G-3, 2-amino-N-(5-chloro-4-(4-(4-methylpiperazine-1-carbonyl)piperidin-1-yl)pyridin-3-yl)-6-fluoropyrazolo[1,5-a]pyrimidine-3-carboxamide] | +++ (Cisplatin sensitization value of <0.02 μM) |
| CN1CCN(C(=O)C2CCN(c3c(F)cncc3NC(=O)c3c(N)nn4cc(F)cnc34)CC2)CC1 [I-G-4, 2-amino-6-fluoro-N-(5-fluoro-4-(4-(4-methylpiperazine-1-carbonyl)piperidin-1-yl)pyridin-3-yl)pyrazolo[1,5-a]pyrimidine-3-carboxamide] | +++ (Cisplatin sensitization value of <0.02 μM) |
| CN1CCN(C(=O)C2CCN(c3c(F)cncc3NC(=O)c3c(N)nn4cc(Cl)cnc34)CC2)CC1 [I-G-5, 2-amino-6-chloro-N-(5-fluoro-4-(4-(4-methylpiperazine-1-carbonyl)piperidin-1-yl)pyridin-3-yl)pyrazolo[1,5-a]pyrimidine-3-carboxamide] | +++ (Cisplatin sensitization value of <0.02 μM) |
| CN1CCCN(C(=O)C2CCN(c3c(F)cncc3NC(=O)c3c(N)nn4cc(F)cnc34)CC2)CC1 [I-G-6, 2-amino-6-fluoro-N-(5-fluoro-4-(4-(4-methyl-1,4-diazepane-1-carbonyl)piperidin-1-yl)pyridin-3-yl)pyrazolo[1,5-a]pyrimidine-3-carboxamide] | +++ (Cisplatin sensitization value of <0.02 μM) |
| Nc1nn2cc(F)cnc2c1C(=O)Nc1cncc(F)c1N1CCC(C(=O)N2CCN3CCC2CC3)CC1 [I-G-7, N-(4-(4-(1,4-diazabicyclo[3.2.2]nonane-4-carbonyl)piperidin-1-yl)-5-fluoropyridin-3-yl)-2-amino-6-fluoropyrazolo[1,5-a]pyrimidine-3-carboxamide] | +++ (Cisplatin sensitization value of <0.02 μM) |
| Nc1nn2cc(F)cnc2c1C(=O)Nc1cncc(F)c1N1CCC(C(=O)N2CCC2)CC1 [I-G-8, 2-amino-N-(4-(4-(azetidine-1-carbonyl)piperidin-1-yl)-5-fluoropyridin-3-yl)-6-fluoropyrazolo[1,5-a]pyrimidine-3-carboxamide] | +++ (Cisplatin sensitization value of <0.02 μM) |
| CCN1CCN(C(=O)C2CCN(c3c(F)cncc3NC(=O)c3c(N)nn4cc(F)cnc34)CC2)CC1 [I-G-9, 2-amino-N-(4-(4-(4-ethylpiperazine-1-carbonyl)piperidin-1-yl)-5-fluoropyridin-3-yl)-6-fluoropyrazolo[1,5-a]pyrimidine-3-carboxamide] | +++ (Cisplatin sensitization value of <0.02 μM) |
| Nc1nn2cc(F)cnc2c1C(=O)Nc1cncc(F)c1N1CCC(C(=O)N2CCN3CCCC3C2)CC1 (centres unmarked) [I-G-10, 2-amino-6-fluoro-N-(5-fluoro-4-(4-(octahydropyrrolo[1,2-a]pyrazine-2-carbonyl)piperidin-1-yl)pyridin-3-yl)pyrazolo[1,5-a]pyrimidine-3-carboxamide] | +++ (Cisplatin sensitization value of <0.02 μM) |
| CN(C)[C@@H]1CCN(C(=O)C2CCN(c3c(F)cncc3NC(=O)c3c(N)nn4cc(F)cnc34)CC2)C1 [I-G-11, (R)-2-amino-N-(4-(4-(3-(dimethylamino)pyrrolidine-1-carbonyl)piperidin-1-yl)-5-fluoropyridin-3-yl)-6-fluoropyrazolo[1,5-a]pyrimidine-3-carboxamide] | +++ (Cisplatin sensitization value of <0.02 μM) |
| Nc1nn2cc(F)cnc2c1C(=O)Nc1cncc(F)c1N1CCC(C(=O)N2CCNCC2)CC1 [I-G-12, 2-amino-6-fluoro-N-(5-fluoro-4-(4-(piperazine-1-carbonyl)piperidin-1-yl)pyridin-3-yl)pyrazolo[1,5-a]pyrimidine-3-carboxamide] | +++ (Cisplatin sensitization value of <0.02 μM) |
| Nc1nn2cc(F)cnc2c1C(=O)Nc1cncc(F)c1N1CCC(C(=O)N2CCN(C3CC3)CC2)CC1 [I-G-13, 2-amino-N-(4-(4-(4-cyclopropylpiperazine-1-carbonyl)piperidin-1-yl)-5-fluoropyridin-3-yl)-6-fluoropyrazolo[1,5-a]pyrimidine-3-carboxamide] | +++ (Cisplatin sensitization value of <0.02 μM) |
| Nc1nn2cc(F)cnc2c1C(=O)Nc1cncc(F)c1N1CCC(C(=O)N2CC3(COC3)C2)CC1 [I-G-14, N-(4-(4-(2-oxa-6-azaspiro[3.3]heptane-6-carbonyl)piperidin-1-yl)-5-fluoropyridin-3-yl)-2-amino-6-fluoropyrazolo[1,5-a]pyrimidine-3-carboxamide] | +++ (Cisplatin sensitization value of <0.02 μM) |
| CN1CCN(C(=O)C2CCN(c3c(F)cncc3NC(=O)c3c(N)nn4cc(F)cnc34)CC2)CC1(C)C [I-G-15, 2-amino-6-fluoro-N-(5-fluoro-4-(4-(3,3,4-trimethylpiperazine-1-carbonyl)piperidin-1-yl)pyridin-3-yl)pyrazolo[1,5-a]pyrimidine-3-carboxamide] | +++ (Cisplatin sensitization value of <0.02 μM) |
| CN(C)CCCN(C)C(=O)C1CCN(c2c(F)cncc2NC(=O)c2c(N)nn3cc(F)cnc23)CC1 [I-G-16, 2-amino-N-(4-(4-((3-(dimethylamino)propyl)(methyl)carbamoyl)piperidin-1-yl)-5-fluoropyridin-3-yl)-6-fluoropyrazolo[1,5-a]pyrimidine-3-carboxamide] | +++ (Cisplatin sensitization value of <0.02 μM) |
| CNCCCN(C)C(=O)C1CCN(c2c(F)cncc2NC(=O)c2c(N)nn3cc(F)cnc23)CC1 [I-G-17] | + (Cisplatin sensitization value>0.2 μM but <5 μM) |
| CN1CC2CN(C(=O)C3CCN(c4c(F)cncc4NC(=O)c4c(N)nn5cc(F)cnc45)CC3)CC2C1 (centres unmarked) [I-G-18, 2-amino-6-fluoro-N-(5-fluoro-4-(4-(5-methyloctahydropyrrolo[3,4-c]pyrrole-2-carbonyl)piperidin-1-yl)pyridin-3-yl)pyrazolo[1,5-a]pyrimidine-3-carboxamide] | +++ (Cisplatin sensitization value of <0.02 μM) |
| CC(C)(C)NC(=O)C1CCN(c2c(F)cncc2NC(=O)c2c(N)nn3cc(F)cnc23)CC1 [I-G-19, 2-amino-N-(4-(4-(tert-butylcarbamoyl)piperidin-1-yl)-5-fluoropyridin-3-yl)-6-fluoropyrazolo[1,5-a]pyrimidine-3-carboxamide] | ++ (Cisplatin sensitization value>0.02 μM but <0.2 μM) |
| CN1CCC(NC(=O)C2CCN(c3c(F)cncc3NC(=O)c3c(N)nn4cc(F)cnc34)CC2)CC1 [I-G-20, 2-amino-6-fluoro-N-(5-fluoro-4-(4-((1-methylpiperidin-4-yl)carbamoyl)piperidin-1-yl)pyridin-3-yl)pyrazolo[1,5-a]pyrimidine-3-carboxamide] | + (Cisplatin sensitization value>0.2 μM but <5 μM) |
| COC1CN(C(=O)C2CCN(c3c(F)cncc3NC(=O)c3c(N)nn4cc(F)cnc34)CC2)C1 [I-G-21, 2-amino-6-fluoro-N-(5-fluoro-4-(4-(3-methoxyazetidine-1-carbonyl)piperidin-1-yl)pyridin-3-yl)pyrazolo[1,5-a]pyrimidine-3-carboxamide] | +++ (Cisplatin sensitization value of <0.02 μM) |
| CN(C)C1CN(C(=O)C2CCN(c3c(F)cncc3NC(=O)c3c(N)nn4cc(F)cnc34)CC2)C1 [I-G-22, 2-amino-N-(4-(4-(3-(dimethylamino)azetidine-1-carbonyl)piperidin-1-yl)-5-fluoropyridin-3-yl)-6-fluoropyrazolo[1,5-a]pyrimidine-3-carboxamide] | +++ (Cisplatin sensitization value of <0.02 μM) |
| CN1CC(NC(=O)C2CCN(c3c(F)cncc3NC(=O)c3c(N)nn4cc(F)cnc34)CC2)C1 [I-G-23, 2-amino-6-fluoro-N-(5-fluoro-4-(4-((1-methylazetidin-3-yl)carbamoyl)piperidin-1-yl)pyridin-3-yl)pyrazolo[1,5-a]pyrimidine-3-carboxamide] | +++ (Cisplatin sensitization value of <0.02 μM) |
| CN1CCC(NC(=O)C2CCN(c3c(F)cncc3NC(=O)c3c(N)nn4cc(F)cnc34)CC2)C1 (centres unmarked) [I-G-24, 2-amino-6-fluoro-N-(5-fluoro-4-(4-((1-methylpyrrolidin-3-yl)carbamoyl)piperidin-1-yl)pyridin-3-yl)pyrazolo[1,5-a]pyrimidine-3-carboxamide] | +++ (Cisplatin sensitization value of <0.02 μM) |
| CN1CCN(C(=O)C2(C#N)CCN(c3c(F)cncc3NC(=O)c3c(N)nn4cc(F)cnc34)CC2)CC1 [I-G-25, 2-amino-N-(4-(4-cyano-4-(4-methylpiperazine-1-carbonyl)piperidin-1-yl)-5-fluoropyridin-3-yl)-6-fluoropyrazolo[1,5-a]pyrimidine-3-carboxamide] | +++ (Cisplatin sensitization value of <0.02 μM) |
| CN(C)CCCNC(=O)C1CCN(c2c(F)cncc2NC(=O)c2c(N)nn3cc(F)cnc23)CC1 [I-G-26, 2-amino-N-(4-(4-((3-(dimethylamino)propyl)carbamoyl)piperidin-1-yl)-5-fluoropyridin-3-yl)-6-fluoropyrazolo[1,5-a]pyrimidine-3-carboxamide] | ++ (Cisplatin sensitization value>0.02 μM but <0.2 μM) |
